According to PubChem BioAssay (NCI):
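Cells were grown in 96-well plates and exposed to each compound for 48 hours at five concentrations; endpoints were interpolated linearly between bracketing concentrations, or set to the highest concentration if not reached. GI50: concentration for 50% inhibition of growth. The concentration for full growth arrest is given as TGI.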

Legend:
Test in all cases: NCI tumour cell line growth inhibition, 48 h
SK-MEL-2 melanoma = tested on: SK-MEL-2 melanoma
SN12C renal = tested on: SN12C renal
NCI/ADR-RES ovarian = tested on: NCI/ADR-RES ovarian
U251 CNS = tested on: U251 CNS
HCT-116 colon = tested on: HCT-116 colon
CCRF-CEM leukemia = tested on: CCRF-CEM leukemia
RPMI-8226 leukemia = tested on: RPMI-8226 leukemia
ACHN renal = tested on: ACHN renal
SNB-19 CNS = tested on: SNB-19 CNS
UACC-62 melanoma = tested on: UACC-62 melanoma
BT-549 breast = tested on: BT-549 breast
HOP-92 NSCLC = tested on: HOP-92 NSCLC
SF-295 CNS = tested on: SF-295 CNS
MCF7 breast = tested on: MCF7 breast
OVCAR-8 ovarian = tested on: OVCAR-8 ovarian
HCT-15 colon = tested on: HCT-15 colon
A549 NSCLC = tested on: A549 NSCLC
OVCAR-4 ovarian = tested on: OVCAR-4 ovarian
786-0 renal = tested on: 786-0 renal
SR leukemia = tested on: SR leukemia
HS 578T breast = tested on: HS 578T breast
SF-268 CNS = tested on: SF-268 CNS
NCI-H226 lung = tested on: NCI-H226 lung
KM12 colon = tested on: KM12 colon
EKVX NSCLC = tested on: EKVX NSCLC
SF-539 CNS = tested on: SF-539 CNS
LOX IMVI melanoma = tested on: LOX IMVI melanoma
PC-3 prostate = tested on: PC-3 prostate
OVCAR-5 ovarian = tested on: OVCAR-5 ovarian
TK-10 renal = tested on: TK-10 renal
SK-OV-3 ovarian = tested on: SK-OV-3 ovarian
OVCAR-3 ovarian = tested on: OVCAR-3 ovarian
RXF 393 renal = tested on: RXF 393 renal
MDA-MB-231 breast = tested on: MDA-MB-231 breast
T-47D breast = tested on: T-47D breast
M14 melanoma = tested on: M14 melanoma
A498 renal = tested on: A498 renal
SK-MEL-28 melanoma = tested on: SK-MEL-28 melanoma
SW-620 colon = tested on: SW-620 colon
CAKI-1 renal = tested on: CAKI-1 renal
HT29 colon = tested on: HT29 colon
NCI-H522 lung = tested on: NCI-H522 lung
IGROV1 ovarian = tested on: IGROV1 ovarian
COLO 205 colon = tested on: COLO 205 colon
UO-31 renal = tested on: UO-31 renal
HL-60(TB) leukemia = tested on: HL-60(TB) leukemia
SNB-75 CNS = tested on: SNB-75 CNS
HOP-62 NSCLC = tested on: HOP-62 NSCLC
MALME-3M melanoma = tested on: MALME-3M melanoma
HCC-2998 colon = tested on: HCC-2998 colon
MDA-MB-435 = tested on: MDA-MB-435
NCI-H460 lung = tested on: NCI-H460 lung
DU-145 prostate = tested on: DU-145 prostate
SK-MEL-5 melanoma = tested on: SK-MEL-5 melanoma
UACC-257 melanoma = tested on: UACC-257 melanoma
MOLT-4 leukemia = tested on: MOLT-4 leukemia
K-562 leukemia = tested on: K-562 leukemia

CS(=O)(=O)c1nccc(-c2c(-c3ccc(F)c(OCCc4ccccc4)c3)nc3sccn23)n1
GI50 (SK-MEL-2 melanoma): 15.8 µM | TGI (SK-MEL-2 melanoma): 30.5 µM | GI50 (SN12C renal): 15.9 µM | TGI (SN12C renal): 34.4 µM | GI50 (NCI/ADR-RES ovarian): 16.8 µM | TGI (NCI/ADR-RES ovarian): 34.3 µM | GI50 (U251 CNS): 16.6 µM | TGI (U251 CNS): 30.2 µM | GI50 (HCT-116 colon): 16.3 µM | TGI (HCT-116 colon): 29.8 µM | GI50 (CCRF-CEM leukemia): 19.1 µM | TGI (CCRF-CEM leukemia): 45.6 µM | GI50 (RPMI-8226 leukemia): 20.5 µM | TGI (RPMI-8226 leukemia): 55 µM | GI50 (ACHN renal): 15.4 µM | TGI (ACHN renal): 28.7 µM | GI50 (SNB-19 CNS): 16.2 µM | TGI (SNB-19 CNS): 31.6 µM | GI50 (UACC-62 melanoma): 17.4 µM | TGI (UACC-62 melanoma): 36.7 µM | GI50 (BT-549 breast): 15.6 µM | TGI (BT-549 breast): 30.1 µM | GI50 (HOP-92 NSCLC): 8.62 µM | TGI (HOP-92 NSCLC): 22.1 µM | GI50 (SF-295 CNS): 18.5 µM | TGI (SF-295 CNS): 33.3 µM | GI50 (MCF7 breast): 4.29 µM | TGI (MCF7 breast): 18.7 µM | GI50 (OVCAR-8 ovarian): 16.7 µM | TGI (OVCAR-8 ovarian): 33.2 µM | GI50 (HCT-15 colon): 16.2 µM | TGI (HCT-15 colon): 32.2 µM | GI50 (A549 NSCLC): 17.1 µM | TGI (A549 NSCLC): 33.5 µM | GI50 (OVCAR-4 ovarian): 15.4 µM | TGI (OVCAR-4 ovarian): 29 µM | GI50 (786-0 renal): 16.5 µM | TGI (786-0 renal): 30.8 µM | GI50 (SR leukemia): 15.6 µM | TGI (SR leukemia): 40.6 µM | GI50 (HS 578T breast): 17.2 µM | TGI (HS 578T breast): 42.9 µM | GI50 (SF-268 CNS): 16.4 µM | TGI (SF-268 CNS): 33.1 µM | GI50 (NCI-H226 lung): 14.1 µM | TGI (NCI-H226 lung): 27.8 µM | GI50 (KM12 colon): 17.3 µM | TGI (KM12 colon): 32.6 µM | GI50 (EKVX NSCLC): 15.8 µM | TGI (EKVX NSCLC): 29.2 µM | GI50 (SF-539 CNS): 16.3 µM | TGI (SF-539 CNS): 30.3 µM | GI50 (LOX IMVI melanoma): 14.9 µM | TGI (LOX IMVI melanoma): 31.8 µM | GI50 (PC-3 prostate): 17.1 µM | TGI (PC-3 prostate): 35.6 µM | GI50 (OVCAR-5 ovarian): 19.2 µM | TGI (OVCAR-5 ovarian): 44.8 µM | GI50 (TK-10 renal): 15.4 µM | TGI (TK-10 renal): 29.7 µM | GI50 (SK-OV-3 ovarian): 19.9 µM | TGI (SK-OV-3 ovarian): 45.2 µM | GI50 (OVCAR-3 ovarian): 15.4 µM | TGI (OVCAR-3 ovarian): 29 µM | GI50 (RXF 393 renal): 14.4 µM | TGI (RXF 393 renal): 27.6 µM | GI50 (MDA-MB-231 breast): 17.6 µM | TGI (MDA-MB-231 breast): 34.4 µM | GI50 (T-47D breast): 10.3 µM | TGI (T-47D breast): 25.7 µM | GI50 (M14 melanoma): 17.7 µM | TGI (M14 melanoma): 32.1 µM | GI50 (A498 renal): 11.8 µM | TGI (A498 renal): 24.3 µM | GI50 (SK-MEL-28 melanoma): 15.2 µM | TGI (SK-MEL-28 melanoma): 28.9 µM | GI50 (SW-620 colon): 18.4 µM | TGI (SW-620 colon): 35.8 µM | GI50 (CAKI-1 renal): 15.2 µM | TGI (CAKI-1 renal): 28.5 µM | GI50 (HT29 colon): 16.7 µM | TGI (HT29 colon): 33.8 µM | GI50 (NCI-H522 lung): 13.5 µM | TGI (NCI-H522 lung): 30.7 µM | GI50 (IGROV1 ovarian): 15.4 µM | TGI (IGROV1 ovarian): 33.5 µM | GI50 (COLO 205 colon): 19.1 µM | TGI (COLO 205 colon): 37.7 µM | GI50 (UO-31 renal): 14.1 µM | TGI (UO-31 renal): 27.1 µM | GI50 (HL-60(TB) leukemia): 5.17 µM | TGI (HL-60(TB) leukemia): 22.2 µM | GI50 (SNB-75 CNS): 11.8 µM | TGI (SNB-75 CNS): 24 µM | GI50 (HOP-62 NSCLC): 17 µM | TGI (HOP-62 NSCLC): 32.9 µM | GI50 (MALME-3M melanoma): 18.2 µM | TGI (MALME-3M melanoma): 33.1 µM | GI50 (HCC-2998 colon): 15.4 µM | TGI (HCC-2998 colon): 30.2 µM | GI50 (MDA-MB-435): 16.7 µM | TGI (MDA-MB-435): 31 µM | GI50 (NCI-H460 lung): 14 µM | TGI (NCI-H460 lung): 30 µM | GI50 (DU-145 prostate): 4.3 µM | TGI (DU-145 prostate): 14.8 µM | GI50 (SK-MEL-5 melanoma): 17.2 µM | TGI (SK-MEL-5 melanoma): 31.8 µM | GI50 (UACC-257 melanoma): 15 µM | TGI (UACC-257 melanoma): 29.6 µM | GI50 (MOLT-4 leukemia): 17.5 µM | TGI (MOLT-4 leukemia): 39.7 µM | GI50 (K-562 leukemia): 20.4 µM | TGI (K-562 leukemia): 68.3 µM
